According to patent US20230293535A1, “ERBB/BTK INHIBITORS” (Dizal (Jiangsu) Pharmaceutical Co., Ltd., priority 2018, published 2023):

What was measured:
Type in all cases: cell-based
[1] = target: T1, human EGFR exon 20 H773_V774insNPH (Homo sapiens, UniProt P00533, INS773NPH); test: EGFR Exon20 NPH insertion cellular phosphorylation inhibition (MSD pEGFR Y1068/total EGFR); conditions: Ba/F3 EGFR NPH ins cells, 4 h compound, p-EGFR(Y1068)/total EGFR;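 also: IL3-independent Ba/F3 cells with constitutively phosphorylated EGFR, compound exposure at 37 °C under 5% CO2, electrochemiluminescent MSD measurement of the p-EGFR to total EGFR ratio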
T1 construct: host or cells: Ba/F3

Ba/F3 EGFR ASV ins cells = test: Cell proliferation, Ba/F3 EGFR ASV ins (CellTiter-Glo, 72 h); conditions: Ba/F3 EGFR, 72 h, Ba/F3 EGFR ASV ins, 72 h proliferation; read-out: EGFR Exon20 ASV insertion GI50;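 also: IL3-independent Ba/F3 cells transduced with EGFR V769_D770insASV, cellular ATP luminescence after compound exposure, growth relative to DMSO control with the day-0 baseline reading subtracted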
Procedure: (§1) WT or mutant cells were seeded in 384 well plates at appropriate concentrations with corresponding growth media supplemented with 10% FBS, for each experiment, identical plates were prepared in duplicates, and the plates were incubated overnight. On the next day, one of each duplicated plates was dosed with tested compounds at a series of concentrations, and another one of the duplicated plate was analysied for G0 value. The dosed plates were incubate for another 72 h at 37° C. with 5% CO2 and the number of viable cells in each well of the G0 plates or the dosed plates were measured by CellTiter-Glo® Luminescent Cell Viability Assay (Promega). This assay is a luminescent method for determining the number viable cells through measurement of cellular ATP concentration by detection of luciferase activity. Detection reagents (15 µl) was dispensed into per well, and the plates were incubate for 30 min at room temperature. Then, the luminescence in each well was measured using the Envision plate reader (PerkinElmer). The percentage of proliferation was calculated based on the formula: %Proliferation= 100 × (G3 value of sample well-Go value)/(G3 value of DMSO control-Go value).

[2] = target: T2, human Her2 exon 20 insertion mutation YVMA (Homo sapiens, UniProt P04626, INS775YVMA); test: Her2 Exon 20 YVMA insertion cellular phosphorylation inhibition (MSD p-Her2 Y1248/total Her2); conditions: Her2 YVMAins cells, 4 h compound;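 also: lentivirally transduced NIH-3T3 cells in 1% FBS medium, electrochemiluminescent MSD read-out, graded compound concentrations at 37 °C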
T2 construct: expressed in transfected cells; host or cells: NIH-3T3, lentiviral transduction, puromycin selection

[3] = target: T3, human EGFR exon 20 V769_D770insASV (Homo sapiens, UniProt P00533, INS769ASV); test: EGFR Exon20 ASV insertion cellular phosphorylation inhibition (MSD pEGFR Y1068/total EGFR); conditions: Ba/F3 EGFR ASV ins cells, 4 h compound, p-EGFR(Y1068)/total EGFR;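 also: electrochemiluminescent readout on an MSD SECTOR Imager, IL3-independent transduced cells in medium with 1% FBS, compound concentration series at 37 °C and 5% CO2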
T3 construct: expressed in transfected cells; host or cells: Ba/F3 (DSMZ ACC-300), lentiviral transduction, puromycin selection, IL3 depletion

Ri-1 cells = test: BTK (wt) cell proliferation, Ri-1 (CellTiter-Glo, 72 h); conditions: Ri-1, 72 h, Ri-1 cells, 72 h, CellTiter-Glo; read-out: BTK WT Ri-1 GI50;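 also: viable cells quantified as cellular ATP luminescence, proliferation normalized to a time-zero plate and the DMSO control, compounds tested across a dilution series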
WT EGFR cell line A-431 = test: Cell proliferation, WT EGFR A431 (CellTiter-Glo, 72 h); conditions: Homo sapiens, A-431, 72 h, A431, 72 h proliferation; read-out: EGFR WT A431 GI50;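 also: proliferation from a luminescent ATP viability signal, expressed as 100 × (treated minus time-zero plate) over (DMSO control minus time-zero plate), cells grown with 10% FBS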
Procedure: as §1

OCI-LY-10 cells = test: BTK (wt) cell proliferation, OCI-LY-10 (CellTiter-Glo, 72 h); conditions: Homo sapiens, OCI-Ly10, 72 h, OCI-LY-10 cells, 72 h, CellTiter-Glo; read-out: BTK WT OCI-LY-10 GI50;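 also: viable cells quantified via cellular ATP luminescence, proliferation given as percent of DMSO control after subtracting a duplicate plate read at time of dosing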
TMD-8 cells = test: BTK (wt) cell proliferation, TMD-8 (CellTiter-Glo, 72 h); conditions: Homo sapiens, TMD8, 72 h, TMD-8 cells, 72 h, CellTiter-Glo; read-out: BTK WT TMD-8 GI50;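 also: viable cells quantified by ATP-based luminescence, proliferation expressed as percent of DMSO control after subtracting a time-zero baseline plate read at dosing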
Procedure: OCI-LY-10 at 3,750 cells/well, TMD-8 and Ri-1 at 2,000 cells/well, and DB at 1,250 cells/well, respectively, were sorted into 384-well plates in RPMI1640 medium with 10% FBS. After overnight incubation, all cells were incubated with compound at a series of concentrations. Meanwhile, a duplicated plate of each cell line was prepared for measuring G0 value. The dosed plates were further incubated for 72 hours and the number of viable cells was measured by CellTiter-Glo® Luminescent Cell Viability Assay (Promega), a luminescent method for determining the number of viable cells through measurement of cellular ATP concentration using Envision plate reader (PerkinElmer). The percentage of proliferation was calculated as: % Proliferation = 100 × (G3 value of sample well - G0 value)/(G3 value of DMSO control - G0 value).

EGFR L858R&T790M = target: T4, EGFR L858R&T790M (Homo sapiens, UniProt P00533, L858R/T790M); test: EGFR L858R and T790M cellular phosphorylation inhibition in NCI-H1975 (MSD); conditions: NCI-H1975 cells, 4 h compound, p-EGFR(Y1068)/total EGFR; read-out: EGFR L858R and T790M mutation IC50;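 also: phosphorylated and total EGFR detected by electrochemiluminescence, cells exposed to compound in medium containing 1% FBS at 37 °C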
T4 construct: host or cells: NCI-H1975

DB cells = test: BTK (wt) cell proliferation, DB (CellTiter-Glo, 72 h); conditions: Homo sapiens, DB, DB cells, CellTiter-Glo, read-out: Non-BCR activated DB GI50;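 also: DB cells in 384-well plates given a dilution series of compound, viable cells read by ATP luminescence, growth expressed versus DMSO control after subtracting a time-zero plate reading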
[4] = system: Her2 exon 20 insertion YVMA transduced NIH-3T3 cell line; test: Cell proliferation, Her2 YVMAins NIH-3T3 (CellTiter-Glo, 72 h); conditions: Mus musculus, NIH3T3, 72 h, Her2 YVMAins cells, 72 h proliferation; read-out: Her2 Exon 20 YVMA insertion GI50;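 also: viable cells quantified by ATP luminescence, growth over a day-zero baseline plate expressed as percent of DMSO control growth, compound dilution series in 10% FBS medium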
Procedure: as §1

Ba/F3 EGFR NPH ins cells = test: Cell proliferation, Ba/F3 EGFR NPH ins (CellTiter-Glo, 72 h); conditions: Ba/F3 EGFR, 72 h, Ba/F3 EGFR NPH ins, 72 h proliferation; read-out: EGFR Exon20 NPH insertion GI50;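 also: IL3-independent cells carrying constitutively phosphorylated EGFR, compound dilution series, viable cells quantified by ATP luminescence, growth relative to DMSO wells after subtracting pre-dosing (day 0) baseline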
Procedure: Similar to recombinant human EGFR exon 20 H769_V770insASV Ba/F3 cell line, the recombinant human EGFR exon 20 H773_V774insNPH Ba/F3 cell line also expresses constitutively phosphorylated EGFR protein and proliferates in the absence of IL3, which could be used for in vitro PD and anti-proliferation assays.
as §1

[5] = system: NCI-H1975 EGFR L858R/T790M cells; test: Cell proliferation, NCI-H1975 EGFR L858R/T790M (CellTiter-Glo, 72 h); conditions: Homo sapiens, NCI-H1975, 72 h, NCI-H1975, 72 h proliferation; read-out: EGFR L858R and T790M mutation GI50;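 also: viable cells quantified by luciferase-based ATP luminescence, proliferation expressed relative to DMSO-treated wells (100%) after subtracting a parallel plate read at the time of dosing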
WT EGFR = target: T5, WT EGFR (Homo sapiens, UniProt P00533); test: WT EGFR cellular phosphorylation inhibition in A-431 (hEGF stimulated, MSD); conditions: A431 cells, 4 h compound, then 100 ng/ml hEGF 10 min;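 also: electrochemiluminescence read-out of EGFR Tyr1068 phosphorylation expressed as ratio to total EGFR, cells kept in medium with 1% FBS, compounds tested as a concentration series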
T5 construct: host or cells: A-431
Procedure: One day before the test, WT or mutant cells were seeded in 96 well plates at appropriate concentrations with corresponding growth media supplemented with 1% FBS, and incubated overnight. The next day, tested compounds at a series of concentrations were added into each individual well of the plates, and the plates were incubated for 4 h at 37° C. with 5% CO2.
The EGFR (Y1068) phosphorylation level (activity) of cells in each well were then measured with MSD kit named “MULTI-SPOT®96 4-Spot HB Prototype EGFR Triplex [sequence]: pEGFR(Tyr1068),pEGFR(Tyr1173), Total EGFR” according to the manufacturer’s instruction (MESO SCALE DISCOVERY, Cat# N45ZB-1). The assay is an electrochemiluminescent method for determining both phosphorylated and total EGFR of cells with an MSD SECTOR® Imager and the ratio of p-EGFR/total EGFR can be generated by the machine. The Her2 (Y1248) phosphorylation level (activity) of cells in each well were measured with MSD Kit named “Phospho-ErbB2 (Tyr1248) Assay Whole Cell Lysate Kit” according to the manufacturer’s instruction (MESO SCALE DISCOVERY, Cat# K151CLD-3). The assay is an electrochemiluminescent method (MESO SCALE DISCOVERY) for determining both phosphorylated and total Her2 of cells with an MSD SECTOR® Imager and then the ratio of p-Her2/total Her2 can be generated by the machine.

T1 sequence (P00533 with tags, fused parts or gaps INS773NPH): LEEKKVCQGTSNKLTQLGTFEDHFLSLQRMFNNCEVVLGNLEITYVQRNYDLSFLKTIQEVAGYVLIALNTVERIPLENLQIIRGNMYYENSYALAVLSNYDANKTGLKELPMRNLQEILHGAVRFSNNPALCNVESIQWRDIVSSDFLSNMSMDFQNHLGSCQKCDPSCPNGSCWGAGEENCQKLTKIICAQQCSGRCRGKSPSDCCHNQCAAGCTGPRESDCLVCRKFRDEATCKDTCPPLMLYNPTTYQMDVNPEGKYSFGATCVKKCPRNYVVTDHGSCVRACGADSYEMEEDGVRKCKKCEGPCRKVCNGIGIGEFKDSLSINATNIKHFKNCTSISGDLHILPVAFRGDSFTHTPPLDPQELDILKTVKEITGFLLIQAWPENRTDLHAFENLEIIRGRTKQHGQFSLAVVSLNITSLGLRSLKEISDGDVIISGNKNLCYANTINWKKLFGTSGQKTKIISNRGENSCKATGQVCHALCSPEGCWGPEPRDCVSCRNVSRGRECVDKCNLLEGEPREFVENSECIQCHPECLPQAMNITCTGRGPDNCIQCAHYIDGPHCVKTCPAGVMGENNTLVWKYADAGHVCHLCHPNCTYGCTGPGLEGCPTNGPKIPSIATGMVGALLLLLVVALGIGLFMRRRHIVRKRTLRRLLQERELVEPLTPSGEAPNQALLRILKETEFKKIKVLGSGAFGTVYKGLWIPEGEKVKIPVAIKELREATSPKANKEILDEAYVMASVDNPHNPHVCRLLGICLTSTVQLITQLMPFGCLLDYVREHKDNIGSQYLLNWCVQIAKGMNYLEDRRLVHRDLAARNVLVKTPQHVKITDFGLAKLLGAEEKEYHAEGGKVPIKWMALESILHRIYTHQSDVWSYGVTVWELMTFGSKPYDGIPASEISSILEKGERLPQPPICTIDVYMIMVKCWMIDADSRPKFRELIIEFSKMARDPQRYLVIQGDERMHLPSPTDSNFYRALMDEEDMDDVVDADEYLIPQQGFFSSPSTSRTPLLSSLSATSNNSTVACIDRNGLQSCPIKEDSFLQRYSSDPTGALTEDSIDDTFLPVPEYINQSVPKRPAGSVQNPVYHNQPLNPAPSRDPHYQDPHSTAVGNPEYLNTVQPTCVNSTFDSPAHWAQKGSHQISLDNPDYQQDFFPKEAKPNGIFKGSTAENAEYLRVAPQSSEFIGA
T2 sequence (P04626 with tags, fused parts or gaps INS775YVMA): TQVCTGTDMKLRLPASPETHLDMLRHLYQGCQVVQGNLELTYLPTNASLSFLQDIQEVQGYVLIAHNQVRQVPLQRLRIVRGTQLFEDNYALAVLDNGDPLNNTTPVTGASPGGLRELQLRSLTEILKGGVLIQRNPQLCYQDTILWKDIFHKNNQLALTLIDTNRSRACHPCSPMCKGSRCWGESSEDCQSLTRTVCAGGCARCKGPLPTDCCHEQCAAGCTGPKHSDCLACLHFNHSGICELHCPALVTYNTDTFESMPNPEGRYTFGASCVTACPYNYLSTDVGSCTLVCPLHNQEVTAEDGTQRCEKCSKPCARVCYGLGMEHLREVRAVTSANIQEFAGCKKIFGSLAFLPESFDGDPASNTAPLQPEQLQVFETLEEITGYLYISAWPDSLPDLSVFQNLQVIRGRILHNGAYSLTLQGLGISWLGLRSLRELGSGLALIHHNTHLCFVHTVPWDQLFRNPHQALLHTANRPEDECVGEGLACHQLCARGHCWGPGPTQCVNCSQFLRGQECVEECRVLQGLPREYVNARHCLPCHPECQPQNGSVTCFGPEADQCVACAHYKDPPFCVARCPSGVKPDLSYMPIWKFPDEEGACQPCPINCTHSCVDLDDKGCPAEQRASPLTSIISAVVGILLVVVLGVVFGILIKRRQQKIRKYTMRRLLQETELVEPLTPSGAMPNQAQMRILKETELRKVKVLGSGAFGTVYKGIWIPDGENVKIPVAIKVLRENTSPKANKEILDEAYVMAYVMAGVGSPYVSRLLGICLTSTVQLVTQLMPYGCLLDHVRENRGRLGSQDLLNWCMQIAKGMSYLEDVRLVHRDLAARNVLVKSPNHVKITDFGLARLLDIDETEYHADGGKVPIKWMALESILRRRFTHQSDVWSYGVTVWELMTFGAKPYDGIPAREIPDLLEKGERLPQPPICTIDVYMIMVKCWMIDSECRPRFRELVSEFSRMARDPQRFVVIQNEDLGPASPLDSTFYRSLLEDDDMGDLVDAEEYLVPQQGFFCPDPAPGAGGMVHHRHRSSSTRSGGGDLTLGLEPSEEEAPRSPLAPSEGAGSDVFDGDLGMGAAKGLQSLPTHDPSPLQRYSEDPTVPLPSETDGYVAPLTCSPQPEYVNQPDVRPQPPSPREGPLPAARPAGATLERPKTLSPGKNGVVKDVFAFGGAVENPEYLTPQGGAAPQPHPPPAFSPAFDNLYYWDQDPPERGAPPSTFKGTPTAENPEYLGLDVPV
T4 sequence (P00533 25-1210 T790M/L858R): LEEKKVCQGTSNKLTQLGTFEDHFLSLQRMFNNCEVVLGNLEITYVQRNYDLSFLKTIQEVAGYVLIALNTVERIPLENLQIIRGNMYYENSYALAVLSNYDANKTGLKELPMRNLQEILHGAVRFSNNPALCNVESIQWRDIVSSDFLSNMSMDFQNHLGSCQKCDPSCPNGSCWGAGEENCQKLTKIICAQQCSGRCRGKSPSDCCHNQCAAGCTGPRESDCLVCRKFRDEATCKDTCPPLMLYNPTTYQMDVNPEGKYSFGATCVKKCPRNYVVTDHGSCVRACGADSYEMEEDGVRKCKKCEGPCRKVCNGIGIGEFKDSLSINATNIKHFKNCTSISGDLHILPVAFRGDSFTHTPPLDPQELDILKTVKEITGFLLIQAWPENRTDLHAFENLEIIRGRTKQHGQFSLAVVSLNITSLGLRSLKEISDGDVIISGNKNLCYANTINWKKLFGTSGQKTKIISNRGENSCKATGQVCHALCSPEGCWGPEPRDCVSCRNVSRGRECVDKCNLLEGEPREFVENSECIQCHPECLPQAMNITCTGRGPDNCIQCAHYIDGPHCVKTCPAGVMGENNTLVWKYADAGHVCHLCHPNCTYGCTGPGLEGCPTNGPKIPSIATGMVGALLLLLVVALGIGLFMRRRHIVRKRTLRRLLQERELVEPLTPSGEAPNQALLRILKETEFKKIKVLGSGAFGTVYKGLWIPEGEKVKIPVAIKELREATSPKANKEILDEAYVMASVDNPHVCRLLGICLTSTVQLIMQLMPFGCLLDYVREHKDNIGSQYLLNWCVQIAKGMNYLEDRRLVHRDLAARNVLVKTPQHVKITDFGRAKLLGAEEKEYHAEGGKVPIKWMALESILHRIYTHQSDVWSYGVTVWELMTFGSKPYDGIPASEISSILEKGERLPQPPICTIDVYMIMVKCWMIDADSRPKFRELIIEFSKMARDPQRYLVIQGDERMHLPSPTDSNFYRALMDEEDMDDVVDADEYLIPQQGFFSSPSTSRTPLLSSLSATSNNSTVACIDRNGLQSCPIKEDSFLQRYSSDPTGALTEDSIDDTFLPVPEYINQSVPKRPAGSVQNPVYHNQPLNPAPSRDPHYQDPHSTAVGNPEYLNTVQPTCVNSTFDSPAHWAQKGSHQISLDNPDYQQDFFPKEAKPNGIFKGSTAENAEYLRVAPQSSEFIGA
T3 sequence (P00533 with tags, fused parts or gaps INS769ASV): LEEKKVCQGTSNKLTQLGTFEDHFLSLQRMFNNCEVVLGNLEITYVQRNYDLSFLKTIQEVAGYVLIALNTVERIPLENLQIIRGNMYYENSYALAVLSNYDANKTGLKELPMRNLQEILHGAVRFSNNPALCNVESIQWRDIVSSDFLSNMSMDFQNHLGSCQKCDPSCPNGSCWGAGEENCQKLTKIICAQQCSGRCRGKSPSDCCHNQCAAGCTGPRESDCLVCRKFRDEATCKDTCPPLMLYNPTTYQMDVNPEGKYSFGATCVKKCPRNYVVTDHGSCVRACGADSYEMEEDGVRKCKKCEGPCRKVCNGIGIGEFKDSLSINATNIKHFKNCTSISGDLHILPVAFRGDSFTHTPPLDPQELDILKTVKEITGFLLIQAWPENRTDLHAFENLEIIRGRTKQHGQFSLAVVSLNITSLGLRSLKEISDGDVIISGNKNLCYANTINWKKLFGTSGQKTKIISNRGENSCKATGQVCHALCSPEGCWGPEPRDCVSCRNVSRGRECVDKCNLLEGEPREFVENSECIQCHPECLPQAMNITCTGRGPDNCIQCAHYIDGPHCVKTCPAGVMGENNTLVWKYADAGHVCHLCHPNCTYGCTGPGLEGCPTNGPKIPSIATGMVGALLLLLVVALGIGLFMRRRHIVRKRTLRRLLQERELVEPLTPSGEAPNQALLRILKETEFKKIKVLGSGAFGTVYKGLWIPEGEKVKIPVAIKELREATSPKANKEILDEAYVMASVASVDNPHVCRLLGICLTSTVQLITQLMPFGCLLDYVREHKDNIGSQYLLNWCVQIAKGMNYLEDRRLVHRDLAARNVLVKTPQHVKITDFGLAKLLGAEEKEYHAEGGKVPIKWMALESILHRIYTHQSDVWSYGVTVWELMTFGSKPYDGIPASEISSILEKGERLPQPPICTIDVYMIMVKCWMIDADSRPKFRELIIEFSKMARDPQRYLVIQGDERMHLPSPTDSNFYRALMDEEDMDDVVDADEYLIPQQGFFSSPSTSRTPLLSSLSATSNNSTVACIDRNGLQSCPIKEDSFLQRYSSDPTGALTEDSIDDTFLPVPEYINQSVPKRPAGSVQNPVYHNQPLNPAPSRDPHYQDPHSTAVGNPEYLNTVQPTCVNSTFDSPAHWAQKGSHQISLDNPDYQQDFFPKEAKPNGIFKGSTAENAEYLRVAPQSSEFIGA

SMILES	IC50 [1]	GI50 (Ba/F3 EGFR ASV ins cells)	IC50 [2]	IC50 [3]	GI50 (WT EGFR cell line A-431)	GI50 (OCI-LY-10 cells)	IC50 (EGFR L858R&T790M)	GI50 (Ba/F3 EGFR NPH ins cells)	GI50 [5]	IC50 (WT EGFR)	GI50 (Ri-1 cells)	GI50 (TMD-8 cells)	GI50 (DB cells)	GI50 [4]
C=CC(=O)Nc1cc(Nc2ncnc(Nc3cccnc3C(C)(C)O)n2)c(OC)cc1N(C)CCN(C)C [Compound 8, N-(2-((2-(dimethylamino)ethyl)(methyl)amino)-5-(4-(2-(2-hydroxypropan-2-yl)pyridin-3-ylamino)-1,3,5-triazin-2-ylamino)-4-methoxyphenyl)acrylamide]	91.1 nM	250 nM	25.7 nM	117 nM	99.8 nM	88 nM	2.9 nM	258 nM	32.4 nM	43.1 nM	> 3000 nM	1780 nM	> 3000 nM	353 nM
C=CC(=O)Nc1cc(Nc2ncnc(Nc3ccc(F)c(F)c3C(C)(C)O)n2)c(OC)cc1N(C)CCN(C)C [Compound 9, N-(5-(4-(3,4-difluoro-2-(2-hydroxypropan-2-yl)phenylamino)-1,3,5-triazin-2-ylamino)-2-((2-(dimethylamino)ethyl)(methyl)amino)-4-methoxyphenyl)ac rylamide]	51.3 nM	191 nM	13.9 nM	62.5 nM	83.1 nM	309 nM	2 nM	180 nM	44.6 nM	131 nM	700 nM	551 nM	> 3000 nM	156 nM
C=CC(=O)Nc1cc(Nc2ncnc(Nc3ccc(Cl)c(F)c3C(C)(C)O)n2)c(OC)cc1N(C)CCN(C)C [Compound 14, N-(5-(4-(4-chloro-3-fluoro-2-(2-hydroxypropan-2-yl)phenylamino)-1,3,5-triazin-2-ylamino)-2-((2-(dimethylamino)ethyl)(methyl)amino)-4-methoxyphenyl)acrylamide]	38.4 nM	84.1 nM	15.8 nM	26.5 nM	29.1 nM	155 nM	1.1 nM	55.4 nM	18 nM	31.3 nM	136 nM	102 nM	> 3000 nM	58.7 nM
C=CC(=O)Nc1cc(Nc2ncnc(Nc3cc(F)c(Cl)c(F)c3C(C)(C)O)n2)c(OC)cc1N(C)CCN(C)C [Compound 16, N-(5-(4-(4-chloro-3,5-difluoro-2-(2-hydroxypropan-2-yl)phenylamino)-1,3,5-triazin-2-ylamino)-2-((2-(dimethylamino)ethyl)(methyl)amino)-4-methoxyphenyl)acrylamide]	36 nM	114 nM	16.5 nM	35.1 nM	52.6 nM	250 nM	0.9 nM	81.3 nM	33.4 nM	47.6 nM	334 nM	118 nM	> 3000 nM	73.4 nM
C=CC(=O)Nc1cc(Nc2ncnc(Nc3cc(F)c(F)cc3C(C)(C)O)n2)c(OC)cc1N(C)CCN1CCCC1 [Compound 18]	61.1 nM	91.3 nM	22.1 nM	42.4 nM	42.8 nM	276 nM	1.1 nM	93.6 nM	10.9 nM	58.9 nM	446 nM	81.7 nM	> 3000 nM	136 nM
C=CC(=O)Nc1cc(Nc2ncnc(Nc3cc(F)c(F)cc3C(C)(C)O)n2)c(OC)cc1N1CC[C@@H]1CN(C)C [Compound 19, (R)-N-(5-(4-(4,5-difluoro-2-(2-hydroxypropan-2-yl)phenylamino)-1,3,5-triazin-2-ylamino)-2-(2-((dimethylamino)methyl)azetidin-1-yl)-4-methoxyphenyl)acrylamide]	46.5 nM	80.9 nM	21.3 nM	29.7 nM	23.1 nM	10.8 nM	0.9 nM	80 nM	9.5 nM	29.7 nM	133 nM	13 nM	> 3000 nM	163 nM

Stronger by IC50 [1], values ahead:

IC50 [1]	GI50 (Ba/F3 EGFR ASV ins cells)	IC50 [2]	IC50 [3]	GI50 (WT EGFR cell line A-431)	GI50 (OCI-LY-10 cells)	IC50 (EGFR L858R&T790M)	GI50 (Ba/F3 EGFR NPH ins cells)	GI50 [5]	IC50 (WT EGFR)	SMILES	GI50 (Ri-1 cells)	GI50 (TMD-8 cells)	GI50 (DB cells)	GI50 [4]
25.3 nM	30.8 nM	11.3 nM	9.4 nM	16.5 nM	99.8 nM	0.5 nM	51.5 nM	7.7 nM	27.2 nM	C=CC(=O)Nc1cc(Nc2ncnc(Nc3cc(F)c(F)cc3C(C)(C)O)n2)c(OC)cc1N(C)C[C@H]1CCCN1C [Compound 20, (R)-N-(5-(4-(4,5-difluoro-2-(2-hydroxypropan-2-yl)phenylamino)-1,3,5-triazin-2-ylamino)-4-methoxy-2-(methyl((1-methylpyrrolidin-2-yl)methyl)amino)phenyl)acrylamide]	56.2 nM	103 nM	> 3000 nM	68.1 nM
15.1 nM	21.1 nM	3.8 nM	7.5 nM	7.9 nM	4.95 nM	0.4 nM	32.9 nM	7.4 nM	8.2 nM	C=CC(=O)Nc1cc(Nc2ncnc(Nc3cc(Cl)c(Cl)cc3C(C)(C)O)n2)c(OC)cc1N(C)CCN(C)C [Compound 15, N-(5-(4-(4,5-dichloro-2-(2-hydroxypropan-2-yl)phenylamino)-1,3,5-triazin-2-ylamino)-2-((2-(dimethylamino)ethyl)(methyl)amino)-4-methoxyphenyl)a crylamide]	6.68 nM	2.44 nM	1340 nM	32.7 nM
13 nM	19.6 nM	6.1 nM	7.8 nM	13.2 nM	41.5 nM	0.3 nM	25 nM	3.7 nM	13.5 nM	C=CC(=O)Nc1cc(Nc2ncnc(Nc3cc(F)c(F)cc3C(C)(C)O)n2)c(OC)cc1N1CC[C@@H]2CN(C)C[C@@H]21 [Compound 17, N-(5-(4-(4,5-difluoro-2-(2-hydroxypropan-2-yl)phenylamino)-1,3,5-triazin-2-ylamino)-4-methoxy-2-((3aR,6aR)-5-methylhexahydropyrrolo[3,4-b]pyrrol-1(2H)-yl)phenyl) acrylamide]	28 nM	53.7 nM	> 3000 nM	37.7 nM
10.8 nM	25.3 nM	3.4 nM	6.4 nM	14.2 nM	27.8 nM	0.3 nM	21.5 nM	8.4 nM	7.6 nM	C=CC(=O)Nc1cc(Nc2ncnc(Nc3cc(F)c(Cl)cc3C(C)(C)O)n2)c(OC)cc1N(C)CCN(C)C [Compound 12, N-(5-(4-(4-chloro-5-fluoro-2-(2-hydroxypropan-2-yl)phenylamino)-1,3,5-triazin-2-ylamino)-2-((2-(dimethylamino)ethyl)(methyl)amino)-4-methoxyphenyl)acrylamide]	51.2 nM	34.5 nM	> 3000 nM	24.5 nM
6.8 nM	8.2 nM	1.7 nM	2.3 nM	4.1 nM	9.7 nM	0.2 nM	11.2 nM	2.5 nM	5.1 nM	C=CC(=O)Nc1cc(Nc2ncnc(Nc3cc(F)c(F)cc3C(C)(C)O)n2)c(OC)cc1N1CCC[C@@H]1CN(C)C [Compound 21, (R)-N-(5-(4-(4,5-difluoro-2-(2-hydroxypropan-2-yl)phenylamino)-1,3,5-triazin-2-ylamino)-2-(2-((dimethylamino)methyl)pyrrolidin-1-yl)-4-methoxyphenyl)acrylamide]	11.2 nM	19.2 nM	> 3000 nM	13.2 nM
